Converted amounts (≈) assume the structure as drawn.
Assays:
in vitro [1] = settings: human
HIV-1IIIB = assay: microbe, parasite or virus in culture; type: cell-based, human immunodeficiency virus type-1; settings: Human immunodeficiency virus 1, MT4, read-out: EC50 HIV-1IIIB
in vitro [2] = settings: Syrian hamster (Mesocricetus auratus)
YFV = assay: microbe, parasite or virus in culture; type: cell-based; settings: Yellow fever virus, BHK, read-out: EC50 YFV
in vitro [3] = settings: cattle (Bos taurus)
BVDV = assay: microbe, parasite or virus in culture; type: cell-based, bovine viral diarrhoea virus; settings: Bovine viral diarrhea virus isolates and strains, MDBK, in Bos taurus, read-out: EC50 BVDV
CV-B4 = assay: Plaque reduction in Vero-76 monolayers, CV-B4; type: cell-based, human enterovirus B (coxsackie virus B4); settings: Enterovirus B, CVB4, reference compound
Sb-1 = assay: microbe, parasite or virus in culture; type: cell-based, human enterovirus C (polio virus type-1); settings: Enterovirus C, Vero 76, read-out: EC50 Sb-1
in vitro [4] = settings: African green monkey (Cercopithecus aethiops)
RSV = assay: Plaque reduction in Vero-76 monolayers, RSV; type: cell-based; settings: human respiratory syncytial virus, reference compound
HSV-1 = assay: Plaque reduction in Vero-76 monolayers, HSV-1; type: cell-based, human herpes virus 1; settings: Human alphaherpesvirus 1, reference compound
Reo-1 = assay: microbe, parasite or virus in culture; type: cell-based, reovirus type-1; settings: Reovirus sp., BHK, read-out: EC50 Reo-1
S. aureus = settings: β-caryophyllene from Aquilaria crassna essential oil; cited from earlier work

O=C1Nc2ccc(Cl)cc2[C@@](C#CC2CC2)(C(F)(F)F)O1 [RC1, Efavirenz]
CC50 (in vitro [1]): 40 µM | EC50 (HIV-1IIIB): 0.003 ± 0.0003 µM

C[C@@]1(O)[C@H](O)[C@@H](CO)O[C@H]1n1cnc2c(=O)[nH]c(N)nc21 [RC2, 2′-C-methylguanosine]
CC50 (in vitro [2]): 80 µM | EC50 (YFV): 1.4 ± 0.2 µM | CC50 (in vitro [3]): > 100 µM | EC50 (BVDV): 1.7 ± 0.3 µM

Cc1cc(CCCOc2c(C)cc(-c3noc(C(F)(F)F)n3)cc2C)on1 [RC3, Pleconaril]
EC50 (CV-B4): 2 ± 0.5 µM | EC50 (Sb-1): 2 µM | CC50 (in vitro [4]): > 100 µM

O=c1cnn([C@@H]2O[C@H](CO)[C@@H](O)[C@H]2O)c(=O)[nH]1 [RC4, 6-aza-uridine]
EC50 (RSV): 2 ± 0.2 µM | CC50 (in vitro [4]): ≥ 14 µM

Nc1nc2c(ncn2COCCO)c(=O)[nH]1 [RC5, Acycloguanosine]
EC50 (HSV-1): 3 ± 0.1 µM | CC50 (in vitro [4]): > 100 µM

COc1c(C)c2c(c(O)c1C/C=C(\C)CCC(=O)O)C(=O)OC2 [RC6, Mycophenolic acid]
CC50 (in vitro [4]): > 100 µM

C[C@@]1(O)[C@H](O)[C@@H](CO)O[C@H]1n1ccc(N)nc1=O [RC7, 2′-C-methylcytidine]
CC50 (in vitro [2]): > 100 µM | EC50 (Reo-1): 17 µM

C=C1CC/C=C(\C)CC[C@@H]2[C@@H]1CC2(C)C [β-caryophyllene]
MIC (S. aureus): 3 ± 0.4 µM (≈ 0.613 µg/mL)

— article PMC7235712, “Biological Activities of Essential Oils from Leaves of Paramignya trimera (Oliv.) Guillaum and Limnocitrus littoralis (Miq.) Swingle” (Antibiotics, 2020)
